Test results reported in patent publication US20260355196A1, “INHIBITORS AND DEGRADERS OF PIP4K PROTEIN” (Larkspur Biosciences, Inc., priority 2023, published 2026).
pIC50: −log10 of the molar value.

Molecular target: T1, PIP4K2C (Homo sapiens, UniProt Q8TBX8)
T1 sequence (Q8TBX8 1-421): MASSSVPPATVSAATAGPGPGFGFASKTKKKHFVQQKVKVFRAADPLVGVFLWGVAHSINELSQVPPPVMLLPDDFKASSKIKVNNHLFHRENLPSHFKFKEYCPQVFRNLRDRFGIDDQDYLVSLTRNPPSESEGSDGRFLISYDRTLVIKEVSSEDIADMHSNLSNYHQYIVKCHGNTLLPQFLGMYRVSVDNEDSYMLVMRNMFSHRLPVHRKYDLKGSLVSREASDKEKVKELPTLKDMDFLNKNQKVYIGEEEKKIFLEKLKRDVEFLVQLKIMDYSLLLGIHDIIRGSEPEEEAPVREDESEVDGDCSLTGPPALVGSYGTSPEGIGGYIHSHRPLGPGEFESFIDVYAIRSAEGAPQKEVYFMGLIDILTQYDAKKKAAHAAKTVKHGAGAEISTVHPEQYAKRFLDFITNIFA
Test: Enzyme Binding Assay (KINOMEscan): active site-directed competition binding to an immobilized ligand
Parameters: purchased Eurofins DiscoverX, San Diego, CA 87-0007-1094
Details: 11-point dose response, duplicate, top concentration 5 micromolar; read-out: Pip4k2c Kd: IC50
Experimental: Example B-1: Enzyme Binding Assays (KINOMEscan)
PIP4K2C binding constants disclosed herein were determined using the proprietary Human PIP4K2C binding assay (Catalog number 87-0007-1094, Eurofins DiscoverX, San Diego, CA). This assay measures active site-directed competition binding to an immobilized ligand (see https://doi.org/10.1038/nbt1068, herein incorporated by reference in its entirety). Experiments were conducted using an 11-point dose response curve, in duplicate, with a top starting concentration of 5 micromolar; the Levenberg-Marquardt algorithm was used to fit a Hill equation to dose-response data to calculate IC50 values (see Table 5).

Row | pIC50 | Molecule
1 | > 6.30 | NC(=O)[C@@H]1CCC[C@H](Nc2ncc(Cl)c(-c3cccc(-n4ccc(F)cc4=O)c3)n2)C1 (racemic) [Compound 168, rac-(1R,3S)-3-((5-chloro-4-(3-(4-fluoro-2-oxopyridin-1 (2H)-yl)phenyl)pyrimidin-2-yl)amino)cyclohexane-1-carboxamide]
2 | > 6.30 | NC(=O)[C@H]1CCC[C@@H](Nc2ncc(F)c(-c3cccc(-c4ccc(=O)[nH]c4)c3)n2)C1 (racemic) [Compound 201, cis-3-((5-fluoro-4-(3-(6-oxo-1,6-dihydropyridin-3-yl)phenyl)pyrimidin-2-yl)amino)cyclohexane-1-carboxamide]
3 | 5.30 to 6.00 | NC(=O)[C@H]1CCC[C@@H](Nc2ncc(Cl)c(-c3ccc(F)cc3)n2)C1 (relative stereo) [Compound 28, cis-3-((5-chloro-4-(4-fluorophenyl)pyrimidin-2-yl)amino)cyclohexane-1-carboxamide]
4 | > 6.30 | CC(=O)N[C@H]1CCC[C@@H](Nc2ncc(Cl)c(-c3cccc(-c4ccccc4)c3)n2)C1 (relative stereo) [Compound 33, cis-N-(3-((4-([1,1′-biphenyl]-3-yl)-5-chloropyrimidin-2-yl)amino)cyclohexyl)acetamide]
5 | > 6.30 | CC(=O)N[C@@H]1CCC[C@@H](Nc2ncc(Cl)c(-c3cccc(-c4ccccc4)c3)n2)C1 (relative stereo) [Compound 34, trans-N-(3-((4-([1,1′-biphenyl]-3-yl)-5-chloropyrimidin-2-yl)amino)cyclohexyl)acetamide]
6 | > 6.30 | NC(=O)[C@@H]1CCC[C@H](Nc2ncc(F)c(-c3cccc(N4CCCC4)c3)n2)C1 (relative stereo) [Compound 36, cis-3-((5-fluoro-4-(3-(pyrrolidin-1-yl)phenyl)pyrimidin-2-yl)amino)cyclohexane-1-carboxamide]
7 | > 6.30 | NC(=O)[C@@H]1CCC[C@H](Nc2ncc(F)c(-c3cccc(C4CCC4)c3)n2)C1 (relative stereo) [Compound 38, cis-3-((4-(3-cyclobutylphenyl)-5-fluoropyrimidin-2-yl)amino)cyclohexane-1-carboxamide]
8 | > 6.30 | NC(=O)[C@@H]1CCC[C@H](Nc2ncc(F)c(-c3ccc(=O)n(-c4ccc(F)cc4)c3)n2)C1 (relative stereo) [Compound 41, cis-3-((5-fluoro-4-(1-(4-fluorophenyl)-6-oxo-1,6-dihydropyridin-3-yl)pyrimidin-2-yl)amino)cyclohexane-1-carboxamide]
9 | 5.30 to 6.00 | NC(=O)[C@H]1CCC[C@@H](Nc2ncc(F)c(-c3ccn(-c4ccc(F)cc4)n3)n2)C1 (relative stereo) [Compound 42, cis-3-((5-fluoro-4-(1-(4-fluorophenyl)-1H-pyrazol-3-yl)pyrimidin-2-yl)amino)cyclohexane-1-carboxamide]
10 | 6.00 to 6.30 | NC(=O)[C@H]1CCC[C@@H](Nc2ncc(F)c(-c3cnn(-c4ccc(F)cc4)c3)n2)C1 (relative stereo) [Compound 43, cis-3-((5-fluoro-4-(1-(4-fluorophenyl)-1H-pyrazol-4-yl)pyrimidin-2-yl)amino)cyclohexane-1-carboxamide]
11 | > 6.30 | NC(=O)[C@@H]1CCC[C@H](Nc2ncc(F)c(C3CCCN(c4ccc(F)cc4)C3)n2)C1 (relative stereo) [Compound 91, cis-3-((5-fluoro-4-(1-(4-fluorophenyl)piperidin-3-yl)pyrimidin-2-yl)amino)cyclohexane-1-carboxamide]

Molecular target: T1, PIP4K2C
Test: HiBiT PIP4K2C degradation assay in MOLT-4 cells (endogenous PIP4K2C C-terminally tagged with HiBiT)
Type: cell-based
Parameters: untagged in primary human PBMCs and monocyte-derived dendritic cells
Details: 6 hours of incubation time, rather than 24 hours; MOLT-4, top concentration 10 micromolar; read-out: HiBIT-degradation MOLT4 PIP4k2C DC50 (6 hours, marked *)
Method in brief: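 DC50 derived by Hill fit of luminescence from Nano-Glo HiBiT lytic detection. Cells were HiBiT knock-in MOLT-4 (C-terminal tag on endogenous PIP4K2C), exposed 6 h or 24 h at 37 C to compound, top concentration 10 micromolar, 3-fold steps, 10 points, duplicates.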

Row | DC50 | Molecule
12 | < 500 nM | O=C1CCC(Nc2ccc(N3CCC(N4CCC(NC(=O)[C@H]5CC[C@H](Nc6ncc(F)c(-c7cccc(N8CCCCC8)c7)n6)CC5)CC4)C(F)C3)c(F)c2)C(=O)N1 (stereo partly drawn) [Compound 700, trans-N-(1′-(4-((2,6-dioxopiperidin-3-yl)amino)-2-fluorophenyl)-3′-fluoro-[1,4′-bipiperidin]-4-yl)-4-((5-fluoro-4-(3-(piperidin-1-yl)phenyl)pyrimidin-2-yl)amino)cyclohexane-1-carboxamide]
13 | < 500 nM | O=C1CCC(Nc2ccc(N3CCC(N4CCC(NC(=O)[C@H]5CC[C@H](Nc6ncc(F)c(-c7cccc(N8CCCCC8=O)c7)n6)CC5)CC4)C(F)C3)c(F)c2)C(=O)N1 (stereo partly drawn) [Compound 701, trans-N-(1′-(4-((2,6-dioxopiperidin-3-yl)amino)-2-fluorophenyl)-3′-fluoro-[1,4′-bipiperidin]-4-yl)-4-((5-fluoro-4-(3-(2-oxopiperidin-1-yl)phenyl)pyrimidin-2-yl)amino)cyclohexane-1-carboxamide]
14 | < 500 nM | O=C1CCC(Nc2ccc(N3CCC(N4CCC(C(=O)NC5CCC(Nc6ncc(F)c(-c7cccc(-c8ccc[nH]c8=O)c7)n6)CC5)CC4)CC3)c(F)c2)C(=O)N1 [Compound 702, trans-1′-(4-(((S)-2,6-dioxopiperidin-3-yl)amino)-2-fluorophenyl)-N-((1r,4r)-4-((5-fluoro-4-(3-(2-oxo-1,2-dihydropyridin-3-yl)phenyl)pyrimidin-2-yl)amino)cyclohexyl)-[1,4′-bipiperidine]-4-carboxamide]
15 | < 500 nM | O=C1CCC(Nc2ccc(N3CCN(C[C@H]4CC[C@H](CC(=O)N[C@H]5CC[C@H](Nc6ncc(F)c(-c7cccc(-c8ccc[nH]c8=O)c7)n6)CC5)CC4)CC3)c(F)c2)C(=O)N1 (stereo partly drawn) [Compound 703, trans-2-((1r,4R)-4-((4-(4-((2,6-dioxopiperidin-3-yl)amino)-2-fluorophenyl)piperazin-1-yl)methyl)cyclohexyl)-N-((1r,4R)-4-((5-fluoro-4-(3-(2-oxo-1,2-dihydropyridin-3-yl)phenyl)pyrimidin-2-yl)amino)cyclohexyl)acetamide]
16 | < 500 nM | O=C1CCC(Nc2ccc(N3CCC(CN4CCC(CC(=O)N[C@H]5CC[C@H](Nc6ncc(F)c(-c7cccc(-n8ccccc8=O)c7)n6)CC5)CC4)CC3)c(F)c2)C(=O)N1 (stereo partly drawn) [Compound 704, trans-2-(1-((1-(4-((2,6-dioxopiperidin-3-yl)amino)-2-fluorophenyl)piperidin-4-yl)methyl)piperidin-4-yl)-N-(4-((5-fluoro-4-(3-(2-oxopyridin-1 (2H)-yl)phenyl)pyrimidin-2-yl)amino)cyclohexyl)acetamide]
17 | < 500 nM | O=C1CC[C@@H](Nc2ccc(C3CCN([C@H]4CC[C@H](C(=O)N[C@H]5CC[C@H](Nc6ncc(F)c(-c7cccc(-n8ccccc8=O)c7)n6)CC5)CC4)CC3)c(F)c2)C(=O)N1 [Compound 706, (1R,4R)-4-(4-(4-(((R)-2,6-dioxopiperidin-3-yl)amino)-2-fluorophenyl)piperidin-1-yl)-N-((1r,4R)-4-((5-fluoro-4-(3-(2-oxopyridin-1(2H)-yl)phenyl)pyrimidin-2-yl)amino)cyclohexyl)cyclohexane-1-carboxamide]
18 | > 5000 nM | trans-(1r,4R)-4-(4-(4-((2,6-dioxopiperidin-3-yl)amino)-2-fluorophenyl)piperidin-1-yl)-N-((1r,4R)-4-((5-fluoro-4-(6-(2-oxo-1,3-oxazinan-3-yl)pyridin-2-yl)pyrimidin-2-yl)amino)cyclohexyl)cyclohexane-1-carboxamide [Compound 539]

Same assay, conditions: 24 hours incubation, MOLT-4, top concentration 10 micromolar; read-out: HiBIT-degradation MOLT4 PIP4k2C 24 hours DC50

Row | DC50 | Molecule
19 | < 500 nM | O=C1CCC(N2Cc3cc(C4CCN(C5CCCN(CC(=O)N6CCC(Nc7ncc(Cl)c(-c8cccc(-c9ccc(F)cc9)c8)n7)CC6)C5)CC4)ccc3C2=O)C(=O)N1 (stereo not shown) [Compound 705, 3-(5-(1′-(2-(4-((5-chloro-4-(4′-fluoro-[1,1′-biphenyl]-3-yl)pyrimidin-2-yl)amino)piperidin-1-yl)-2-oxoethyl)-[1,3′-bipiperidin]-4-yl)-1-oxoisoindolin-2-yl)piperidine-2,6-dione]
